In US5322698A, “Process for the preparation of a tablet or dragee composition containing a heat-, light- and moisture-sensitive active ingredient having monoclinic crystal structure” (priority 1990, dated 1994):
Counter-ions that a name gives are not always drawn. Like-named read-outs stand apart in the source and are kept apart here.

Tests used:
[1] = antiarrhythmic reference drugs; Welling et al. 1985; cited from earlier work
[2] = Clinical investigations: half life in blood and relative bioavailability; type: in vivo, human; settings: for half-life: human, blood, read-out: half life measured in the blood (converted)
[3] = Storage experiments in the presence of moisture, heat and light load (wet-granulated tablets); type: physicochemical; settings: in the wet-granulated tablet of Comparative Example 1
Source text: The tablets obtained were subjected to storage experiments carried out in the presence of moisture and heat as well as light load.

Question: For C=C[C@H]1C[N@@]2CC[C@H]1C[C@@H]2[C@@H](O)c1ccnc2ccc(OC)cc12 [quinidine], which bioavailability [1] is on record?
Answer: 40 to 70%

Question: With Cc1cccc(C)c1NNC(=N)N(C)C [1-(2,6-Dimethylphenyl)-4,4'-dimethylaminoguanidine hydrochloride] as the compound, how does the relative bioavailability ([2]; composition according to the invention, clinical) read?
Answer: about 80%

Question: What about the half-life ([2]; composition according to the invention) of the same compound?
Answer: 3.2 h

Question: What about the half-life ([2]; injectable composition containing the same active ingredient) of the same compound?
Answer: 2.4 h

Question: Which “prevention of decomposition process by antioxidant” value [3] does the source give for O=C1O[C@H]([C@@H](O)CO)C(O)=C1O [ascorbic acid] here?
Answer: could not be prevented by ascorbic acid
